Results from PubChem BioAssay (NCI).
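Each compound was tested at five concentrations against cells in 96-well plates for 48 hours. Here, GI50 denotes the concentration required for 50% inhibition of growth. TGI marks complete inhibition of growth.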

Legend:
Assay in all cases: NCI tumour cell line growth inhibition, 48 h
OVCAR-3 ovarian = system: OVCAR-3 ovarian
SNB-75 CNS = system: SNB-75 CNS
HOP-92 NSCLC = system: HOP-92 NSCLC
SW-620 colon = system: SW-620 colon
MDA-MB-231 breast = system: MDA-MB-231 breast
MCF7 breast = system: MCF7 breast
SNB-19 CNS = system: SNB-19 CNS
NCI-H522 lung = system: NCI-H522 lung
OVCAR-4 ovarian = system: OVCAR-4 ovarian
A549 NSCLC = system: A549 NSCLC
SN12C renal = system: SN12C renal
HCC-2998 colon = system: HCC-2998 colon
ACHN renal = system: ACHN renal
786-0 renal = system: 786-0 renal
BT-549 breast = system: BT-549 breast
HOP-62 NSCLC = system: HOP-62 NSCLC
DU-145 prostate = system: DU-145 prostate
U251 CNS = system: U251 CNS
IGROV1 ovarian = system: IGROV1 ovarian
KM12 colon = system: KM12 colon
HT29 colon = system: HT29 colon
PC-3 prostate = system: PC-3 prostate
TK-10 renal = system: TK-10 renal
CAKI-1 renal = system: CAKI-1 renal
SF-295 CNS = system: SF-295 CNS
HCT-15 colon = system: HCT-15 colon
UACC-62 melanoma = system: UACC-62 melanoma
T-47D breast = system: T-47D breast
SK-MEL-2 melanoma = system: SK-MEL-2 melanoma
NCI-H460 lung = system: NCI-H460 lung
SF-268 CNS = system: SF-268 CNS
SK-MEL-5 melanoma = system: SK-MEL-5 melanoma
OVCAR-5 ovarian = system: OVCAR-5 ovarian
MALME-3M melanoma = system: MALME-3M melanoma
CCRF-CEM leukemia = system: CCRF-CEM leukemia
MDA-MB-435 = system: MDA-MB-435
NCI-H23 lung = system: NCI-H23 lung
SF-539 CNS = system: SF-539 CNS
LOX IMVI melanoma = system: LOX IMVI melanoma
SK-MEL-28 melanoma = system: SK-MEL-28 melanoma
UACC-257 melanoma = system: UACC-257 melanoma
MOLT-4 leukemia = system: MOLT-4 leukemia
NCI/ADR-RES ovarian = system: NCI/ADR-RES ovarian
UO-31 renal = system: UO-31 renal
SK-OV-3 ovarian = system: SK-OV-3 ovarian
HCT-116 colon = system: HCT-116 colon
RXF 393 renal = system: RXF 393 renal
COLO 205 colon = system: COLO 205 colon
HS 578T breast = system: HS 578T breast
RPMI-8226 leukemia = system: RPMI-8226 leukemia
HL-60(TB) leukemia = system: HL-60(TB) leukemia
K-562 leukemia = system: K-562 leukemia
NCI-H226 lung = system: NCI-H226 lung
OVCAR-8 ovarian = system: OVCAR-8 ovarian

O=C1c2ccccc2-c2nnc(-c3ccc(Br)cc3)cc21
GI50 (OVCAR-3 ovarian): > 100 µM
TGI (OVCAR-3 ovarian): > 100 µM
GI50 (SNB-75 CNS): > 100 µM
TGI (SNB-75 CNS): > 100 µM
GI50 (HOP-92 NSCLC): > 100 µM
TGI (HOP-92 NSCLC): > 100 µM
GI50 (SW-620 colon): > 100 µM
TGI (SW-620 colon): > 100 µM
GI50 (MDA-MB-231 breast): > 100 µM
TGI (MDA-MB-231 breast): > 100 µM
GI50 (MCF7 breast): > 100 µM
TGI (MCF7 breast): > 100 µM
GI50 (SNB-19 CNS): > 100 µM
TGI (SNB-19 CNS): > 100 µM
GI50 (NCI-H522 lung): > 100 µM
TGI (NCI-H522 lung): > 100 µM
GI50 (OVCAR-4 ovarian): > 100 µM
TGI (OVCAR-4 ovarian): > 100 µM
GI50 (A549 NSCLC): > 100 µM
TGI (A549 NSCLC): > 100 µM
GI50 (SN12C renal): > 100 µM
TGI (SN12C renal): > 100 µM
GI50 (HCC-2998 colon): > 100 µM
TGI (HCC-2998 colon): > 100 µM
GI50 (ACHN renal): > 100 µM
TGI (ACHN renal): > 100 µM
GI50 (786-0 renal): > 100 µM
TGI (786-0 renal): > 100 µM
GI50 (BT-549 breast): > 100 µM
TGI (BT-549 breast): > 100 µM
GI50 (HOP-62 NSCLC): > 100 µM
TGI (HOP-62 NSCLC): > 100 µM
GI50 (DU-145 prostate): > 100 µM
TGI (DU-145 prostate): > 100 µM
GI50 (U251 CNS): > 100 µM
TGI (U251 CNS): > 100 µM
GI50 (IGROV1 ovarian): > 100 µM
TGI (IGROV1 ovarian): > 100 µM
GI50 (KM12 colon): > 100 µM
TGI (KM12 colon): > 100 µM
GI50 (HT29 colon): > 100 µM
TGI (HT29 colon): > 100 µM
GI50 (PC-3 prostate): > 100 µM
TGI (PC-3 prostate): > 100 µM
GI50 (TK-10 renal): > 100 µM
TGI (TK-10 renal): > 100 µM
GI50 (CAKI-1 renal): > 100 µM
TGI (CAKI-1 renal): > 100 µM
GI50 (SF-295 CNS): > 100 µM
TGI (SF-295 CNS): > 100 µM
GI50 (HCT-15 colon): > 100 µM
TGI (HCT-15 colon): > 100 µM
GI50 (UACC-62 melanoma): > 100 µM
TGI (UACC-62 melanoma): > 100 µM
GI50 (T-47D breast): 48.8 µM
TGI (T-47D breast): > 100 µM
GI50 (SK-MEL-2 melanoma): > 100 µM
TGI (SK-MEL-2 melanoma): > 100 µM
GI50 (NCI-H460 lung): > 100 µM
TGI (NCI-H460 lung): > 100 µM
GI50 (SF-268 CNS): > 100 µM
TGI (SF-268 CNS): > 100 µM
GI50 (SK-MEL-5 melanoma): > 100 µM
TGI (SK-MEL-5 melanoma): > 100 µM
GI50 (OVCAR-5 ovarian): > 100 µM
TGI (OVCAR-5 ovarian): > 100 µM
GI50 (MALME-3M melanoma): > 100 µM
TGI (MALME-3M melanoma): > 100 µM
GI50 (CCRF-CEM leukemia): > 100 µM
TGI (CCRF-CEM leukemia): > 100 µM
GI50 (MDA-MB-435): > 100 µM
TGI (MDA-MB-435): > 100 µM
GI50 (NCI-H23 lung): > 100 µM
TGI (NCI-H23 lung): > 100 µM
GI50 (SF-539 CNS): > 100 µM
TGI (SF-539 CNS): > 100 µM
GI50 (LOX IMVI melanoma): > 100 µM
TGI (LOX IMVI melanoma): > 100 µM
GI50 (SK-MEL-28 melanoma): > 100 µM
TGI (SK-MEL-28 melanoma): > 100 µM
GI50 (UACC-257 melanoma): > 100 µM
TGI (UACC-257 melanoma): > 100 µM
GI50 (MOLT-4 leukemia): > 100 µM
TGI (MOLT-4 leukemia): > 100 µM
GI50 (NCI/ADR-RES ovarian): > 100 µM
TGI (NCI/ADR-RES ovarian): > 100 µM
GI50 (UO-31 renal): > 100 µM
TGI (UO-31 renal): > 100 µM
GI50 (SK-OV-3 ovarian): > 100 µM
TGI (SK-OV-3 ovarian): > 100 µM
GI50 (HCT-116 colon): > 100 µM
TGI (HCT-116 colon): > 100 µM
GI50 (RXF 393 renal): > 100 µM
TGI (RXF 393 renal): > 100 µM
GI50 (COLO 205 colon): > 100 µM
TGI (COLO 205 colon): > 100 µM
GI50 (HS 578T breast): > 100 µM
TGI (HS 578T breast): > 100 µM
GI50 (RPMI-8226 leukemia): > 100 µM
TGI (RPMI-8226 leukemia): > 100 µM
GI50 (HL-60(TB) leukemia): > 100 µM
TGI (HL-60(TB) leukemia): > 100 µM
GI50 (K-562 leukemia): > 100 µM
TGI (K-562 leukemia): > 100 µM
GI50 (NCI-H226 lung): > 100 µM
TGI (NCI-H226 lung): > 100 µM
GI50 (OVCAR-8 ovarian): > 100 µM
TGI (OVCAR-8 ovarian): > 100 µM
